# Test results taken from patent US9302999B2, “Substituted triazoles as herbicides” (E. I. DU PONT DE NEMOURS AND COMPANY, priority 2012, dated 2016).
# Where two headings read alike, the source gives them in different places.
# How the values were obtained:
# Type in all cases: in vivo
# [1] = test system: morningglory (Ipomoea spp.); assay: Test A pre-/postemergence: morningglory; conditions: Ipomoea, 240 h; for pest or weed control at 125 g/ha: 125 g ai/ha; for pest or weed control at 500 g/ha: 500 g ai/ha
# How it was run: (§1)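 Pre: directed soil spray after planting in loam + sand. Post: same formulation (non-phytotoxic solvent + surfactant) on 1–2-leaf plants, 2–10 cm. Greenhouse ~10 d; visual injury 0–100 vs untreated.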
# [2] = test system: barnyardgrass (Echinochloa crus-galli); assay: Test A pre-/postemergence: barnyardgrass; conditions: Echinochloa crus-galli, 240 h; for pest or weed control at 125 g/ha: 125 g ai/ha; for pest or weed control at 500 g/ha: 500 g ai/ha
# How it was run: as §1
# [3] = test system: barnyardgrass (Echinochloa crus-galli); assay: Test B flooded paddy: barnyardgrass; conditions: Flood; 250 g ai/ha; applied to paddy water at 2-leaf stage; visually evaluated after 13 to 15 days
# How it was run: (§2)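 Response scored visually, 0–100 relative to controls, 13–15 days after the compound was applied into paddy water; plants were at the 2-leaf stage in pots kept flooded to 3 cm.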
# [4] = test system: pigweed (Amaranthus retroflexus); assay: Test A pre-/postemergence: pigweed; conditions: Amaranthus retroflexus, 240 h; for pest or weed control at 125 g/ha: 125 g ai/ha; for pest or weed control at 500 g/ha: 500 g ai/ha
# How it was run: as §1
# [5] = test system: rice (Oryza sativa); assay: Test B flooded paddy: rice; conditions: Flood; 250 g ai/ha; applied to paddy water at 2-leaf stage; visually evaluated after 13 to 15 days
# How it was run: as §2
# [6] = test system: blackgrass (Alopecurus myosuroides); assay: Test C pre-/postemergence: blackgrass
# How it was run: (§3)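 Preemergence on seeds in loam/sand, postemergence on 2–18 cm (1–4-leaf) plants in peat-based medium; compounds in non-phytotoxic solvent with surfactant. After 13–15 days in greenhouse, visual rating versus controls, 0 (no effect) to 100 (complete control).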
# [7] = test system: ragweed (common ragweed, Ambrosia elation); assay: Test C pre-/postemergence: ragweed
# How it was run: as §3
# [8] = test system: soybean (Glycine max); assay: Test C pre-/postemergence: soybean
# How it was run: as §3
# [9] = test system: crabgrass, large (large crabgrass, Digitaria sanguinalis); assay: Test A pre-/postemergence: crabgrass, large; conditions: Digitaria sanguinalis, 240 h; for pest or weed control at 125 g/ha: 125 g ai/ha; for pest or weed control at 500 g/ha: 500 g ai/ha
# How it was run: as §1
# [10] = test system: lambsquarters (Chenopodium album); assay: Test C pre-/postemergence: lambsquarters
# How it was run: as §3
# [11] = Postemergence, 31 g ai/ha, scale 0 to 100 (0 no effect, 100 complete control)
# [12] = Postemergence, 62 g ai/ha, scale 0 to 100 (0 no effect, 100 complete control)
# [13] = Postemergence, 125 g ai/ha, scale 0 to 100, 0 no effect, 100 complete control
# [14] = Preemergence, 31 g ai/ha, scale 0 (no effect) to 100 (complete control)
# [15] = Preemergence, 62 g ai/ha, scale 0 to 100, 0 no effect, 100 complete control
# [16] = Preemergence, 125 g ai/ha, scale 0 to 100, 0 no effect, 100 complete control
# [17] = Preemergence, 250 g ai/ha, scale 0 to 100, 0 no effect, 100 complete control
# [18] = Postemergence, 250 g ai/ha, scale 0 to 100 (0 no effect, 100 complete control)
smiles,measurement,setting,value
"CCOc1nn(-c2ccc(F)cc2)nc1Cc1ccnc(C(F)(F)F)c1 [Compound 196, 4-[[5-ethoxy-2-(4-fluorophenyl)-2H-1,2,3-triazol-4-yl]methyl]-2-(trifluoromethyl)pyridine]",pest or weed control at 125 g/ha,"[1]; post-emergence, Postemergence, 0 to 100 scale, 0 is no effect, 100 is complete control, read-out: Plant response rating, Morningglory",100%
same,pest or weed control at 500 g/ha,"[1]; post-emergence, Postemergence, 0 to 100 scale, 0 is no effect, 100 is complete control, read-out: Morningglory plant response rating",100%
same,pest or weed control at 125 g/ha,"[1]; pre-emergence, Preemergence, 0 to 100 scale where 0 is no effect and 100 is complete control, read-out: Plant response rating, Morningglory",60%
same,pest or weed control at 500 g/ha,"[1]; pre-emergence, Preemergence, 0 to 100 scale (0 no effect, 100 complete control), read-out: Plant response rating, Morningglory",90%
same,pest or weed control at 125 g/ha,"[2]; post-emergence, Postemergence, 0 to 100 scale, 0 is no effect, 100 is complete control, read-out: Plant response rating, Barnyardgrass",80%
same,pest or weed control at 500 g/ha,"[2]; post-emergence, Postemergence, 0 to 100 scale, 0 is no effect, 100 is complete control, read-out: Barnyardgrass plant response rating",90%
same,pest or weed control at 125 g/ha,"[2]; pre-emergence, Preemergence, 0 to 100 scale where 0 is no effect and 100 is complete control, read-out: Plant response rating, Barnyardgrass",100%
same,pest or weed control at 500 g/ha,"[2]; pre-emergence, Preemergence, 0 to 100 scale (0 no effect, 100 complete control), read-out: Plant response rating, Barnyardgrass",100%
same,"Plant response rating, Barnyardgrass (0 to 100 scale, 0 is no effect, 100 is complete control)",[3],85
same,pest or weed control at 125 g/ha,"[4]; post-emergence, Postemergence, 0 to 100 scale, 0 is no effect, 100 is complete control, read-out: Plant response rating, Pigweed",100%
same,pest or weed control at 500 g/ha,"[4]; post-emergence, Postemergence, 0 to 100 scale, 0 is no effect, 100 is complete control, read-out: Pigweed plant response rating",100%
same,pest or weed control at 125 g/ha,"[4]; pre-emergence, Preemergence, 0 to 100 scale where 0 is no effect and 100 is complete control, read-out: Plant response rating, Pigweed",100%
same,pest or weed control at 500 g/ha,"[4]; pre-emergence, Preemergence, 0 to 100 scale (0 no effect, 100 complete control), read-out: Plant response rating, Pigweed",100%
same,"Plant response rating, Rice (0 to 100 scale, 0 is no effect, 100 is complete control)",[5],70
same,"Plant response rating, Blackgrass",[6]; [11],70
same,"Plant response rating, Blackgrass",[6]; [12],80
same,"Plant response rating, Blackgrass",[6]; [13],80
same,"Plant response rating, Blackgrass","[6]; Postemergence, 250 g ai/ha, scale 0 to 100",80
same,"Plant response rating, Blackgrass",[6]; [14],90
same,"Plant response rating, Blackgrass",[6]; [15],90
same,"Plant response rating, Blackgrass",[6]; [16],90
same,"Plant response rating, Blackgrass",[6]; [17],90
same,"Plant response rating, Ragweed",[7]; [11],70
same,"Plant response rating, Ragweed",[7]; [12],85
same,"Plant response rating, Ragweed",[7]; [13],90
same,"Plant response rating, Ragweed",[7]; [18],90
same,"Plant response rating, Ragweed",[7]; [14],40
same,"Plant response rating, Ragweed",[7]; [15],60
same,"Plant response rating, Ragweed",[7]; [16],80
same,"Plant response rating, Ragweed",[7]; [17],90
same,"Plant response rating, Soybean",[8]; [11],45
same,"Plant response rating, Soybean",[8]; [12],50
same,"Plant response rating, Soybean",[8]; [13],65
same,"Plant response rating, Soybean",[8]; [18],70
same,"Plant response rating, Soybean",[8]; [14],10
same,"Plant response rating, Soybean",[8]; [15],15
same,"Plant response rating, Soybean",[8]; [16],30
same,"Plant response rating, Soybean",[8]; [17],35
same,pest or weed control at 125 g/ha,"[9]; post-emergence, Postemergence, 0 to 100 scale, 0 is no effect, 100 is complete control, read-out: Plant response rating, Crabgrass, Large",90%
same,pest or weed control at 500 g/ha,"[9]; post-emergence, Postemergence, 0 to 100 scale, 0 is no effect, 100 is complete control, read-out: Crabgrass, Large plant response rating",90%
same,pest or weed control at 125 g/ha,"[9]; pre-emergence, Preemergence, 0 to 100 scale where 0 is no effect and 100 is complete control, read-out: Plant response rating, Crabgrass, Large",100%
same,pest or weed control at 500 g/ha,"[9]; pre-emergence, Preemergence, 0 to 100 scale (0 no effect, 100 complete control), read-out: Plant response rating, Crabgrass, Large",100%
same,"Plant response rating, Lambsquarters",[10]; [11],95
same,"Plant response rating, Lambsquarters",[10]; [12],95
same,"Plant response rating, Lambsquarters",[10]; [13],95
same,"Plant response rating, Lambsquarters",[10]; [18],95
same,"Plant response rating, Lambsquarters",[10]; [14],85
same,"Plant response rating, Lambsquarters",[10]; [15],90
same,"Plant response rating, Lambsquarters",[10]; [16],95
same,"Plant response rating, Lambsquarters",[10]; [17],95
